{"source": "paper PMC7437366", "about": "(Biochemistry, 2010)", "key": {"[1]": {"tested_on": "AKHR-mediated ERK1/2 activation", "assay_type": "cell-based, Bombyx", "conditions": "for Dose dependence of PKC inhibitor effect on ERK1/2 activation: inhibitor 0.03 μM to 3 μM, three independent experiments"}, "[2]": {"tested_on": "adipokinetic effect of AKH", "conditions": "M. sexta, in vivo; ref [44]; cited from earlier work"}, "[3]": {"tested_on": "magnolol-induced lipolysis", "conditions": "MEK inhibitor; ref [57]; cited from earlier work"}, "fat body of Bombyx": {"tested_on": "fat body of Bombyx", "experiment": "Lipolysis in the fat body of Bombyx", "conditions": "MEK inhibitor treatment; preliminary experiment, data not shown"}}, "note": "Where two headings read alike, the source gives them in different places.", "data": [{"smiles": "COC[C@H]1OC(=O)c2coc3c2[C@@]1(C)C1=C(C3=O)[C@@H]2CCC(=O)[C@@]2(C)C[C@H]1OC(C)=O", "note": "[Wortmanmin, wortmannin]", "values": [{"measurement": "Effect on AKH-induced ERK1/2 activation, PI3K inhibitor", "setting": "[1]; wortmannin 1 μM, 1 h, 37°C, AKH 5 nM, 5 min, Fig. 9, S2", "result": "no effect on ERK1/2 activation"}]}, {"smiles": "O=C(NCCN1CCC(n2c(=O)[nH]c3ccccc32)CC1)c1cc2cc(F)ccc2[nH]1", "note": "[FIPI]", "values": [{"measurement": "Effect of PLD inhibitor on ERK1/2 activation", "setting": "[1]; FIPI 1 μM, 1 hour, AKH 5 nM, 5 min, Fig. 4B, S1", "result": "could not block the activation of ERK1/2"}]}, {"smiles": "COc1ccc(CCN(C)CCCC(C#N)(c2ccc(OC)c(OC)c2)C(C)C)cc1OC", "note": "(stereo not drawn) [verapamil]", "values": [{"measurement": "Effect of Ca2+ channel inhibitors on adipokinetic effect of AKH", "setting": "[2]", "result": "effectively impair the adipokinetic effect of AKH"}]}, {"smiles": "COc1ccc2c(c1)CC[C@@H]1[C@@H]2CC[C@]2(C)[C@@H](NCCCCCCN3C(=O)C=CC3=O)CC[C@@H]12", "note": "[U73122]", "values": [{"measurement": "Effect of PLC inhibitor on ERK1/2 activation", "setting": "[1]; U73122 10 μM, 1 hour, AKH 5 nM, 5 min, Fig. 4A, S1", "result": "could not block the activation of ERK1/2"}]}, {"smiles": "CN(C)CCCn1cc(C2=C(c3c[nH]c4ccccc34)C(=O)NC2=O)c2ccccc21", "note": "[GF109203X]", "values": [{"measurement": "Dose dependence of PKC inhibitor effect on ERK1/2 activation", "setting": "[1]; 1 hour, AKH 5 nM, 5 min", "result": "decrease in the activation of ERK1/2 stimulated by 5 nM AKH in a dose-dependent manner"}]}, {"smiles": "COc1cc2ncnc(Nc3cccc(Cl)c3)c2cc1OC", "note": "[AG1478]", "values": [{"measurement": "Effect on AKH-induced ERK1/2 activation, EGFR inhibitor", "setting": "[1]; AG1478 1 μM, 1 h, 37°C, AKH 5 nM, 5 min, Fig. 9, S2", "result": "no effect on ERK1/2 activation"}]}, {"smiles": "CCCCCCCCCCCCCCCCCCOCC(COP(=O)([O-])OCC[N+](C)(C)C)OC", "note": "(stereo not drawn) [ET-18-OCH3]", "values": [{"measurement": "Effect of PLC inhibitor on ERK1/2 activation", "setting": "[1]; ET-18-OCH3 100 μM, AKH 5 nM, S1", "result": "could not block the activation of ERK1/2"}]}, {"smiles": "COC(=O)C1=C(C)NC(C)=C(C(=O)OC)C1c1ccccc1[N+](=O)[O-]", "note": "[nifedipine]", "values": [{"measurement": "Effect of Ca2+ channel inhibitors on adipokinetic effect of AKH", "setting": "[2]", "result": "effectively impair the adipokinetic effect of AKH"}]}, {"smiles": "CC(C)(C)n1nc(-c2ccc(Cl)cc2)c2c(N)ncnc21", "note": "[PP2]", "values": [{"measurement": "Effect on AKH-induced ERK1/2 activation, Src inhibitor", "setting": "[1]; PP2 10 μM, 1 h, 37°C, AKH 5 nM, 5 min, Fig. 9, S2", "result": "no effect on ERK1/2 activation"}]}, {"smiles": "COc1cccc(-c2cc(=O)c3ccccc3o2)c1N", "note": "[PD98059]", "values": [{"measurement": "Effect on magnolol-induced lipolysis", "setting": "[3]", "result": "inhibited"}]}, {"smiles": "COc1ccc2c(c1)c(C1=C(c3c[nH]c4ccccc34)C(=O)NC1=O)cn2CCCN(C)C", "note": "[Go6983]", "values": [{"measurement": "Effect on AKH-induced ERK1/2 phosphorylation, PKC inhibitor", "setting": "[1]; Go6983 3 μM, 1 h, 37°C, AKH 5 nM, 5 min, Fig. 9", "result": "significant decrease of AKH-induced phosphorylation of ERK1/2"}, {"measurement": "Dose dependence of PKC inhibitor effect on ERK1/2 activation", "setting": "[1]; 1 hour, AKH 5 nM, 5 min", "result": "decrease in the activation of ERK1/2 stimulated by 5 nM AKH in a dose-dependent manner"}]}, {"smiles": "O=S(=O)(NCCNC/C=C/c1ccc(Br)cc1)c1cccc2cnccc12", "note": "[H89]", "values": [{"measurement": "Dose dependence of inhibition of ERK1/2, PKA inhibitor", "setting": "[1]; H89 1 μM to 20 μM, 1 hour, AKH 5 nM, 5 min, mean ± S.E.M (n = 3)", "result": "Inhibition of ERK1/2 is dependent on the concentration of H89"}, {"measurement": "Effect on ERK1/2 phosphorylation, PKA inhibitor", "setting": "[1]; H89 10 μM, 1 hour preincubation, 37°C, AKH 0.1 nM to 10 nM, 5 min, mean ± S.E.M (n = 3)", "result": "significantly decreased ERK1/2 phosphorylation"}, {"measurement": "Effect on AKH-induced ERK1/2 phosphorylation, PKA inhibitor", "setting": "[1]; H89 20 μM, 1 h, 37°C, AKH 5 nM, 5 min, Fig. 9", "result": "significant decrease of AKH-induced phosphorylation of ERK1/2"}]}, {"smiles": "N#CC(=C(/N)Sc1ccccc1N)/C(C#N)=C(/N)Sc1ccccc1N", "note": "[U0126]", "values": [{"measurement": "Effect on AKH-induced ERK1/2 phosphorylation, MEK inhibitor", "setting": "[1]; U0126 100 nM, 1 h, 37°C, AKH 5 nM, 5 min, Fig. 9", "result": "significant decrease of AKH-induced phosphorylation of ERK1/2"}, {"measurement": "Effect on lipolysis in the fat body of Bombyx", "setting": "fat body of Bombyx", "result": "blockade of lipolysis in the fat body of Bombyx"}]}, {"smiles": "CNC(=O)[C@H](Cc1c[nH]c2ccccc12)NC(=O)[C@@H](CC(=O)NO)CC(C)C", "note": "[GM6001]", "values": [{"measurement": "Effect on AKH-induced ERK1/2 activation, MMP inhibitor", "setting": "[1]; GM6001 5 μM, 1 h, 37°C, AKH 5 nM, 5 min, Fig. 9, S2", "result": "no effect on ERK1/2 activation"}]}]}
